Calls of active or inactive are those of the source. No rule for the calls is given here.

The test system of this assay is HCT116 viability, CellTiter-Glo, GSK3B-pretreated. Kind of assay: HCT116 cell viability decrease, GSK3B pretreatment – CellTiter-Glo, IC50, dose response (AID 1117339).
The IC50 is the concentration that gives 50% inhibition. For `OCCN1CCN(CC/C=C2/c3ccccc3Sc3ccc(C(F)(F)F)cc32)CC1`, the IC50 is 2890 nM.
In the case of `Cc1ccc([N+](=O)[O-])[c]2c1[O][Hg]2` it was 2220 nM (inactive); in that of `CCCCCCCCCCCCCC[N+](C)(C)C`, 754 nM.

The values above are taken from PubChem BioAssay AID1117339.
